Laboratory results reported in patent US7879792B2, “Synthetic peptide inhibitors of thrombin and thrombin activation of protease activated receptors 1 and 4” (The Regents of the University of Michigan, priority 2005, dated 2011).
Like-named read-outs stand apart in the source and are kept apart here. Where a SMILES comes first, the peptide text is derived from it.

Columns and labels:
[1] = target: human α-thrombin (Homo sapiens, UniProt P00734); assay: inhibition of α-thrombin hydrolysis of chromogenic substrate; type: biochemical; details: Ki (μM) + SD, αIIa (2 nM), alpha-thrombin 2 nM, Sar-Pro-Arg-paranitroanilide
[2] = rat intestinal in situ perfusion permeability; type: in vivo; details: rat
Protocol: To determine the intestinal permeability of the various peptide analogs, male albino Sprague-Dawley rats, 9-10 weeks old and weighing 250-350 g were fasted for 18 hours with free access to water. The rats were anesthetized with an intramuscular injection of ketamine/xylazine/butorphanol (87 mg/kg, 6 mg/kg, and 0.2 mg/kg body weight, respectively). The abdomen was opened by a 4-5 cm midline incision and a 10 cm jejunal segment was cannulated on two ends and connected to a syringe pump that pumps the perfusing solution through the cannulated intestine at a constant rate and at a temperature of 37° C. The isolated segment was rinsed with 10 mM MES (pH 6.5) at a flow-rate of 0.5 ml/min in order to clean out any residual debris. Jejunal perfusion was subsequently performed with the same buffer containing 135 mM NaCl, 5 mM KCl and 0.01% PEG 4000 at a flow rate of 0.2 ml/min containing test compound, internal permeability reference standards (e.g., metoprolol) and ^14C-PEG 4000 as a non-absorbable marker for measuring water flux. After steady-state is reached within the perfused intestinal segment, typically 30 minutes after start of perfusion, samples were taken at 10 minute intervals for 1 hour. ^14C (PEG-4000) levels are assayed by scintillation counting and test compounds and internal permeability standard analysis by LC/MS/MS. Samples are frozen and stored at −80° C. until analysis.
The effective permeability (Peff) determined from the in situ perfusion is calculated from equation 1
[formula] where Q is the perfusion buffer flow rate, C′out is the outlet concentration of the compound that has been adjusted for water transport (equation 2) after passing through the intestinal segment, C′in is the inlet or starting concentration of the compound, R is the radius of the intestinal segment (set to 0.2 cm) and L is the length of the intestinal segment. To correct for water transport, a non-absorbed radioactive tracer, ^14C PEG-4000, is included in the perfusion buffer. The Cout/Cin ratio is corrected for water transport according to equation 2:
[formula] where Aout-A0 is equal to the radioactivity counts in the outlet sample minus background (dpm) and Ain-A0 is equal to the radioactivity counts in the inlet sample minus background (dpm).
In certain instances, in addition to perfusing the intestinal segment as described, plasma is drawn through a portal vein cannula to determine the amount of material entering the portal system during the perfusion. This additional experimental step can aid in determining the true intestinal permeability of unstable compounds. After steady state conditions are reached as described above, 0.5 ml aliquots of plasma are withdrawn from the portal vein at regular intervals throughout the experimental time frame. The plasma samples are deproteinated with acetonitrile and the sample is subjected to SPE and LC/MS analysis as described above. From the plasma concentration of compound, the mesenteric permeability can be determined by substitution into equation 3: Flux=A*Pe-mes*Ci 3) where Flux is equal to the portal blood flow (estimated at 1 ml/min in the rat)×the steady state mesenteric blood concentration of the peptide analogs, A is the absorptive area of the intestine (estimated at 12.56 cm^2 in the rat intestine), Pe-mes is the mesenteric Permeability (cm/sec), and Ci is the starting concentration of drug in the perfusate (ug/ml).

[3] = stability testing in MES buffer (pH 6.5); type: physicochemical; details: 37° C., read-out: t1/2 (min) MES Buffer (pH 6.5)
Protocol: (§1) Stability testing of the various compounds was performed in buffer, intestinal perfusate, and an intestinal homogenate preparation to assess the potential oral availability of these compounds. Initial studies prepared the tissue for stability studies. The buffer used in stability testing is 10 mM MES (pH 6.5) containing 135 mM NaCl, and 5 mM KCl. To collect intestinal perfusate from rats, male Sprague Dawley rats, 8 to 10 weeks old, weighing 250 to 350 g were fasted 15 to 18 hours with water given ad libitum. Anesthesia was administered by intramuscular injection of pentobarbital/ketamine (40 mg/kg and 80 mg/kg, respectively). The rats were placed on a warming pad under a surgical lamp to maintain body temperature and jejunal intestinal segments were exposed through a midline, abdominal incision. Approximately 20 cm segment of the jejunum (2 to 4 cm distal to the ligament of Treitz) was cannulated and the intestinal segments were perfused with 10 mM MES (pH 6.5) containing 135 mM NaCl, and 5 mM KCl at a flow-rate of 0.5 ml/min at 37° C. using a constant infusion pump (Harvard Apparatus, South Natick, Mass.). The collected perfusate was stored at −80° C. until use for ex vivo stability studies. After collection, the perfused intestinal segments were flushed with ice-cold 0.15 M KCl solution and the animal was euthanized and the jejunal intestinal segment detached. The inner intestinal tissue layers are scraped out and homogenized in MES buffer (pH 6.5) in a ratio of 1 part of intestinal tissue to 5 parts buffer. Total protein content of the perfusate and the homogenate were determined using a Biorad protein assay kit. The intestinal homogenate samples were used immediately or rapidly frozen at −80° C. until stability analysis.
The actual stability testing protocol is as follows: A 0.1 ml aliquot of the synthetic peptide solution (1 mg/ml) was added to 0.9 ml of MES buffer, pH 6.5, intestinal perfusate, or intestinal homogenate at 37° C. Samples were mixed by vortexing and 100 microliter aliquots were removed over a 60 to 90 minute period for analysis of breakdown products. […]

[4] = stability testing in intestinal homogenate; type: in vitro ADME; details: rat
Protocol: as §1
(§2) The actual stability testing protocol is as follows: A 0.1 ml aliquot of the synthetic peptide solution (1 mg/ml) was added to 0.9 ml of MES buffer, pH 6.5, intestinal perfusate, or intestinal homogenate at 37° C. Samples were mixed by vortexing and 100 microliter aliquots were removed over a 60 to 90 minute period for analysis of breakdown products. The 100 microliter sample aliquots were diluted 10 fold with water and subjected to solid phase extraction using a Waters Oasis HLB column. Briefly, the columns were preconditioned by passing 1 ml of MeOH and 1 ml of water over the column, and 1 ml of sample was added to the column. The column was washed with 5% methanol:95% water solution to remove proteins and salts, then eluted with 1 ml of 100% methanol. The methanol was removed by vacuum, and the sample was reconstituted in mobile phase for LC/MS/MS analysis.
(§3) LC/MS/MS analysis was performed on a HP1100 HPLC (Hewlett Packard) interfaced with a Quattro II MS/MS detector (Waters/Micromass). For the HPLC separation, a 10 μL aliquot of sample in a mobile phase consisting of an equal volume mixture of acetonitrile/water containing 0.5% formic acid was injected onto a 150 mm×2.2 mm, 5 μm C8 column (Higgins Analytical Inc) and developed at a flow rate of 0.2 ml/min for 5 minutes. The MS detector was used in single ion recording mode at a cone voltage of 50 Volts.

[5] = stability testing in intestinal perfusate; type: in vitro ADME; details: rat, 37° C.
Protocol: as §1, §2, §3

Row | Papp ([2]; from portal vein plasma during perfusion, read-out: Permeability (mesenteric)) [×10⁻⁶ cm/s] | Papp ([2]; rat jejunal in situ perfusion, read-out: Permeability (in situ)) [×10⁻⁶ cm/s] | half-life [3] [min] | t1/2 (min) Intestinal Homogenate ([4]; 37° C.) | t1/2 (min) Intestinal Perfusate [5] | SMILES | Ki [1] [µM] | Papp ([2]; male, Sprague-Dawley, other: in situ jejunal perfusion, pH 6.5, from portal vein plasma during perfusion, read-out: Permeability (mesenteric)) [×10⁻⁶ cm/s] | Papp ([2]; male, Sprague-Dawley, other: in situ jejunal perfusion, pH 6.5, rat jejunal in situ perfusion, read-out: Permeability (in situ)) [×10⁻⁶ cm/s] | half-life at 0.1 mg/ml [3] [min] | half-life at 0.1 mg/ml ([4]; male, Sprague Dawley, intestinal (jejunal) homogenate, pH 6.5, 37° C., read-out: t1/2 (min) Intestinal Homogenate) [min] | stability in intestinal homogenate (FIG. 12) [4] | half-life at 0.1 mg/ml ([5]; male, Sprague Dawley, intestinal (jejunal) perfusate, pH 6.5, rat, read-out: t1/2 (min) Intestinal Perfusate) [min]
1 | – | – | – | – | – | Cc1ccc(C[C@H](NC(=O)[C@@H](C)NC(=O)[C@@H]2CCCN2C(=O)[C@@H]2C[C@@H]3CCCC[C@@H]3N2C(=O)[C@H](N)CCCN=C(N)N)C(N)=O)cc1 [rOicPaF(p-Me), D-Arg-Oic-Pro-D-Ala-Phe(p-Me)] (HELM PEPTIDE1{[dR].[O=C([C@@H]1C[C@@H]2CCCC[C@@H]2N1[*:1])[*:2]].P.[dA].[Cc1ccc(C[C@H](N[*:1])C(=O)[*:2])cc1].[am]}$$$$V2.0) | 6.4 to 10.6 | 0.309 | 1 | 363 | 757 | most stable | 314
2 | 0.139 | 6.2 | 604 | stable | stable | C[C@@H](NC(=O)[C@@H]1CCCN1C(=O)[C@@H]1C[C@@H]2CCCC[C@@H]2N1C(=O)[C@H](N)CCCNC(=N)N)C(=O)N[C@@H](Cc1ccccc1)C(N)=O [rOicPaF] (HELM PEPTIDE1{[dR].[O=C([C@@H]1C[C@@H]2CCCC[C@@H]2N1[*:1])[*:2]].P.[dA].F.[am]}$$$$V2.0) | – | – | – | – | – | most stable | –
